Data published in US7709481B2, “Phenyl-1,2,4-oxadiazolone derivatives, processes for their preparation and methods for their use as pharmaceuticals” (Sanofi-Aventis, priority 2005, dated 2010).
Where two headings read alike, the source gives them in different places.

Assays:
PPARdelta [1] = conditions: obese, insulin resistant rhesus monkeys; cited from earlier work
PPARdelta [2] = molecular target: T1, PPARdelta (Mus musculus, UniProt P35396); conditions: diabetic animal model; cited from earlier work
T1 sequence (P35396 1-440): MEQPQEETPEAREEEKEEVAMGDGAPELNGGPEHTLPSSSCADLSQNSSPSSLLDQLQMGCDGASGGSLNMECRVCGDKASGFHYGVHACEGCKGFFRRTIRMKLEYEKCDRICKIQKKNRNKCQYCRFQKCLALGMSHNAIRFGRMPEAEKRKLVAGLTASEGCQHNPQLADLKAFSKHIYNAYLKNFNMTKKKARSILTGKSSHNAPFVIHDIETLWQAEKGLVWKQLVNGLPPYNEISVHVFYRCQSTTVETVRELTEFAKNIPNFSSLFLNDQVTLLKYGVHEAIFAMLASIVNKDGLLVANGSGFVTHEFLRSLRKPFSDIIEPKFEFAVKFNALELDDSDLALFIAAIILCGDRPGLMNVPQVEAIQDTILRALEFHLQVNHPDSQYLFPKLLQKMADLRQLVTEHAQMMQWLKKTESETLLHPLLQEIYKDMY

human PPARalpha = molecular target: T2, human PPARalpha (Homo sapiens, UniProt Q07869); assay: Cellular PPARalpha assay (HEK PPARalpha reporter cell line, luciferase); assay type: cell-based; conditions: 24 h incubation
T2 construct: human PPARalpha receptor (amino acids S167-Y468); expressed in transfected cells; plasmid pcDNA3
T2 sequence (Q07869 167-468): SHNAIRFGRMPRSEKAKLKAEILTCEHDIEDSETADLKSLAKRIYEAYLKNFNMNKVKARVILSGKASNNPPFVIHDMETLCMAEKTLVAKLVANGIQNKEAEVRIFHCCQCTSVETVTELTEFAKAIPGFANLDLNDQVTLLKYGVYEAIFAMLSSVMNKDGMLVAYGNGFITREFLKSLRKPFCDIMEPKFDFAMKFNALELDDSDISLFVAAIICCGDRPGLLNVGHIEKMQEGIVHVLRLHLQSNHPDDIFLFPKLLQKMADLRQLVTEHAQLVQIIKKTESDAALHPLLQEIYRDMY
Experimental: The activity of the compounds was tested as follows. The potency of substances which bind to human PPARalpha and activate it in an agonistic manner is analyzed using a stably transfected HEK cell line (HEK=human embryo kidney) which is referred to here as PPARalpha reporter cell line. It contains two genetic elements, a luciferase reporter element (pdeltaM-GAL4-Luc-Zeo) and a PPARalpha fusion protein (GR-GAL4-humanPPARalpha-LBD) which mediates expression of the luciferase reporter element depending on a PPARalpha ligand. The stably and constitutively expressed fusion protein GR-GAL4-humanPPARalpha-LBD binds in the cell nucleus of the PPARalpha reporter cell line via the GAL4 protein portion to the GAL4 DNA binding motifs 5′-upstream of the luciferase reporter element which is stably integrated in the genome of the cell line. There is only weak expression of the luciferase reporter gene in the absence of a PPARalpha ligand if fatty acid-depleted fetal calf serum (cs-FCS) is used in the assay. PPARalpha ligands bind and activate the PPARalpha fusion protein and thereby stimulate the expression of the luciferase reporter gene. The luciferase which is formed can be detected by means of chemiluminescence via an appropriate substrate.
The PPARalpha reporter cell line was prepared in two stages. Firstly, the luciferase reporter element was constructed and stably transfected into HEK cells. For this purpose, five binding sites of the yeast transcription factor GAL4 (Accession # AF264724) were cloned in 5′-upstream of a 68 bp-long minimal MMTV promoter (Accession # V01175). The minimal MMTV promoter section contains a CCAAT box and a TATA element in order to enable efficient transcription by RNA polymerase II. The cloning and sequencing of the GAL4-MMTV construct took place in analogy to the description of Sambrook J. et. al. (Molecular cloning, Cold Spring Harbor Laboratory Press, 1989). Then the complete Photinus pyralis gene (Accession # M15077) was cloned in 3′-downstream of the GAL4-MMTV element. After sequencing, the luciferase reporter element consisting of five GAL4 binding sites, MMTV promoter and luciferase gene was recloned into a plasmid which confers zeocin resistance in order to obtain the plasmid pdeltaM-GAL4-Luc-Zeo. This vector was transfected into HEK cells in accordance with the statements in Ausubel, F. M. et al. (Current protocols in molecular biology, Vol. 1-3, John Wiley & Sons, Inc., 1995).
In a second step, the PPARalpha fusion protein (GR-GAL4-humanPPARalpha-LBD was introduced into the stable cell clone described. For this purpose, initially the cDNA coding for the N-terminal 76 amino acids of the glucocorticoid receptor (Accession # P04150) was linked to the cDNA section coding for amino acids 1-147 of the yeast transcription factor GAL4 (Accession # P04386). The cDNA of the ligand-binding domain of the human PPARalpha receptor (amino acids S167-Y468; Accession # S74349) was cloned in at the 3′-end of this GR-GAL4 construct. The fusion construct prepared in this way (GR-GAL4-humanPPARalpha-LBD) was recloned into the plasmid pcDNA3 (Invitrogen) in order to enable constitutive expression therein by the cytomegalovirus promoter. This plasmid was linearized with a restriction endonuclease and stably transfected into the previously described cell clone containing the luciferase reporter element. The finished PPARalpha reporter cell line which contains a luciferase reporter element and constitutively expresses the PPARalpha fusion protein (GR-GAL4-human PPARalpha-LBD) was isolated by selection with zeocin (0.5 mg/ml) and G418 (0.5 mg/ml).
The activity of PPARalpha agonists is determined in a 3-day assay which is described below: […]

human PPARdelta = molecular target: T3, human PPARdelta (Homo sapiens, UniProt Q03181); assay: Cellular PPARdelta assay (HEK PPARdelta reporter cell line, luciferase); assay type: cell-based; conditions: 24 h incubation
T3 construct: human PPARdelta receptor (amino acids S139-Y441); expressed in transfected cells; plasmid pcDNA3
T3 sequence (Q03181 139-441): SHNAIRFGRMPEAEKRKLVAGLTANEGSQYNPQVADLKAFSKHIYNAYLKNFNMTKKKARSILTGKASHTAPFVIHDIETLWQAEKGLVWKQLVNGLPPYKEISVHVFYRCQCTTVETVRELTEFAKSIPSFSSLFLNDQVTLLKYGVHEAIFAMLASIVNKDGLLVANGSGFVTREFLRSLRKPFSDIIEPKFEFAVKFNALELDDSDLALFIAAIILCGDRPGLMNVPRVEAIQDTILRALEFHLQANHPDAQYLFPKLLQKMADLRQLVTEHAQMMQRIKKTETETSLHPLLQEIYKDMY
Experimental: The raw data from the luminometer are transferred into a Microsoft Excel file. Dose-effect plots and EC50 values of PPAR agonists are calculated using the XL.Fit program as specified by the manufacturer (IDBS). […] Compounds of the invention of the formula I activate the PPARalpha receptor. Determination of EC50 values of PPAR agonists in the cellular PPARdelta assay The potency of substances which bind to human PPARdelta and activate it in an agonistic manner is analyzed using a stably transfected HEK cell line (HEK=human embryo kidney) which is referred to here as PPARdelta reporter cell line. In analogy to the assay described for PPARalpha, the PPARdelta reporter cell line also contains two genetic elements, a luciferase reporter element (pdeltaM-GAL4-Luc-Zeo) and a PPARdelta fusion protein (GR-GAL4-humanPPARdelta-LBD) which mediates expression of the luciferase reporter element depending on a PPARdelta ligand. The stably and constitutively expressed fusion protein GR-GAL4-humanPPARdelta-LBD binds in the cell nucleus of the PPARdelta reporter cell line via the GAL4 protein portion to the GAL4 DNA binding motifs 5′-upstream of the luciferase reporter element which is stably integrated in the genome of the cell line. There is only little expression of the luciferase reporter gene in the absence of a PPARdelta ligand if fatty acid-depleted fetal calf serum (cs-FCS) is used in the assay. PPARdelta ligands bind and activate the PPARdelta fusion protein and thereby stimulate expression of the luciferase reporter gene. The luciferase which is formed can be detected by means of chemiluminescence via an appropriate substrate.
The production of the stable PPARdelta reporter cell line is based on a stable HEK-cell clone which was stably transfected with a luciferase reporter element. This step was already described above in the section “construction of the PPARalpha reporter cell line”. In a second step, the PPARdelta fusion protein (GR-GAL4-humanPPARdelta-LBD was stably introduced into this cell clone. For this purpose, the cDNA coding for the N-terminal 76 amino acids of the glucocorticoid receptor (Accession # P04150) was linked to the cDNA section coding for amino acids 1-147 of the yeast transcription factor GAL4 (Accession # P04386). The cDNA of the ligand-binding domain of the human PPARdelta receptor (amino acids S139-Y441; Accession # L07592) was cloned in at the 3′-end of this GR-GAL4 construct. The fusion construct prepared in this way (GR-GAL4-humanPPARdelta-LBD) was recloned into the plasmid pcDNA3 (Invitrogen) in order to enable constitutive expression by the cytomegalovirus promoter. This plasmid was linearized with a restriction endonuclease and stably transfected into the previously described cell clone containing the luciferase reporter element. The resulting PPARdelta reporter cell line which contains a luciferase reporter element and constitutively expresses the PPARdelta fusion protein (GR-GAL4-human PPARdelta-LBD) was isolated by selection with zeocin (0.5 mg/ml) and G418 (0.5 mg/ml).
The activity of PPARdelta agonists is determined in a 3-day assay in exact analogy to the procedure already described for the PPARalpha reporter cell line except that the PPARdelta reporter cell line and a specific PPARdelta agonist was used as a standard to control test efficacy. PPARdelta EC50 values in the range from 0.3 nM to >10 μM were measured for the PPAR agonists of Examples 1 to 69 described in this application. Compounds of the invention of the formula I activate the PPARdelta receptor.

PPARdelta/PPARalpha [3] = conditions: rhesus and cynomolgus monkeys; cited from earlier work
PPARdelta/PPARalpha [4] = conditions: two weeks clinical trials in healthy volunteers; cited from earlier work

EC50 (human PPARalpha)	EC50 (human PPARdelta)	Compound	also measured
> 33000 nM	7 nM	CCC(Oc1ccc(-c2noc(=O)[nH]2)c(OC(F)F)c1)c1sc([C@H]2CC[C@H](C(F)(F)F)CC2)nc1CN1CCC(C(F)(F)F)CC1 (stereo partly drawn) [Example 61, 3-(2-Difluoromethoxy-4-{1-[2-(trans-1,4-trifluoromethyl-cyclohexyl)-4-(4-trifluoromethyl-piperidin-1-ylmethyl)-thiazol-5-yl]-propoxy}-phenyl)-4H-1,2,4-oxadiazol-5-one]	
335 nM	7 nM	CCC(Oc1cc(OC)c(-c2noc(=O)[nH]2)cc1F)c1sc([C@H]2CC[C@H](C(F)(F)F)CC2)nc1C (stereo partly drawn) [Example 51, 3-(5-Fluoro-2-methoxy-4-{1-[4-methyl-2-(trans-1,4-trifluoromethyl-cyclohexyl)-thiazol-5-yl]-propoxy}-phenyl)-4H-1,2,4-oxadiazol-5-one]	

The remaining lines, values behind:

Compound	EC50 (human PPARalpha)	EC50 (human PPARdelta)	also measured
Cc1cc(SCc2sc(-c3ccc(C(F)(F)F)cc3)nc2C)ccc1OCC(=O)O [GW501516]			HDL-cholesterol (PPARdelta [1]): raises HDL-cholesterol; plasma LDL-cholesterol, triglycerides and insulin levels (PPARdelta [1]): decreases plasma LDL-cholesterol, triglycerides and insulin levels
CCCc1c(OCCCOc2ccc(OCC(=O)O)cc2)ccc(C(C)=O)c1O [Example L-165041]			plasma cholesterol (PPARdelta [2]): raises plasma cholesterol
CCCc1c(OCCCSc2nnc(SCC(=O)O)s2)ccc(C(C)=O)c1O [YM-16638]			plasma lipids (PPARdelta/PPARalpha [3]): significantly lowers plasma lipids; plasma lipids (PPARdelta/PPARalpha [4]): acts in a similar manner
Cc1nc(-c2ccc(C(F)(F)F)nc2)sc1C(OCc1ccc(-c2noc(=O)[nH]2)c(Cl)n1)C(F)(F)F (centres unmarked) [Example 37, 3-(2-Chloro-6-{2,2,2-trifluoro-1-[4-methyl-2-(6-trifluoromethyl-pyridin-3-yl)-thiazol-5-yl]-ethoxymethyl}-pyridin-3-yl)-4H-[1,2,4]oxadiazol-5-one]	> 33000 nM	59 nM	
